Assay results: patent US4945158A, “Antidiabetic phosphonates” (American Cyanamid Company, priority 1988, dated 1990)
pEC50, pIC50: −log10 of the molar value.

How the values were obtained:
[1] = target: T1, 6-phosphofructo-1-kinase (PFK) (Rattus norvegicus, UniProt P30835); assay: PFK stimulation, aldolase-coupled spectrophotometric assay; type: biochemical; conditions: stimulation of purified rat liver 6-phosphofructo-1-kinase; 0.2 mM fructose-6-phosphate, pH 7.3, 30° C.; read-out: PFK ED50
T1 construct: purified rat liver 6-phosphofructo-1-kinase; from tissue; host or cells: rat liver
T1 sequence (P30835 2-780 limits assumed): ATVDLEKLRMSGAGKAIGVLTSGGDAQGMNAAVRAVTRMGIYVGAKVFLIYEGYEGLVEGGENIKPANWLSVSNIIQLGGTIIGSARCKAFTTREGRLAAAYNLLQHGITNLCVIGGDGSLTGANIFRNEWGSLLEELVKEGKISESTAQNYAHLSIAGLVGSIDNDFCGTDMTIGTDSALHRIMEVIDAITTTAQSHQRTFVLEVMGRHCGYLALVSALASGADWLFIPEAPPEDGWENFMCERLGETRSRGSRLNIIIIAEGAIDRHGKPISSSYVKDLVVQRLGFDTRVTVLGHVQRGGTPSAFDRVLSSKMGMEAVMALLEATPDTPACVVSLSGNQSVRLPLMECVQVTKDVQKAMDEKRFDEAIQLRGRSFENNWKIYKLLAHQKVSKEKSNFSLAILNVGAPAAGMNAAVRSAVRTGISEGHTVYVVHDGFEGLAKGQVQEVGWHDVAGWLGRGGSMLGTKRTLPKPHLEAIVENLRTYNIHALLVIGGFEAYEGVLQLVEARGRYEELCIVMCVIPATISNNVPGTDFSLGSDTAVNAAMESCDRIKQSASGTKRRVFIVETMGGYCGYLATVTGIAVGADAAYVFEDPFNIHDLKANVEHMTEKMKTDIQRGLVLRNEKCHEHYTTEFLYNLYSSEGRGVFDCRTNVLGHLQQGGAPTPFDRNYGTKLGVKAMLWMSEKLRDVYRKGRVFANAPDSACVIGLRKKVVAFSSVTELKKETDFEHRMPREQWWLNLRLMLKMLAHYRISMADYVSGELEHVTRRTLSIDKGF
Experimental: (§1) The novel compounds of this invention were tested for their ability to stimulate the enzyme 6-phosphofructo-1-kinase ("PFK") and for their ability to inhibit the enzyme fructose-1,6-bisphosphatase ("FBP") using the procedures described below.
Effects on the activity of PFK were determined using an aldolase-coupled, spectrophotometric assay. The assay mixture contained: […] N-tris-(hydroxymethyl)-methyl-2-aminoethanesulfonic acid, hydrochloride ("TES-HCl", pH 7.3); 1 mM ethylenediaminetetraacetic acid ("EDTA"); 6 mM magnesium chloride; 2.5 mM dithiothreitol; 0.165 mM nicotinamide adenine dinucleotide ("NADH"); 1 mM adenosine triphosphate ("ATP"); 0.04 U aldolase; 0.4 U triose phosphate isomerase; alpha-glycerolphosphate dehydrogenase (1.5 U/ml); 0.1 U of purified rat liver 6-phosphofructo-1-kinase; and various concentrations of the test compound, all in a final volume of 1 ml. The mixture was preincubated for 3 minutes at 30° C. and then the reaction was initiated with 0.2 mM fructose-6-phosphate. The rate of decrease in absorbance at 340 nm was measured at 30° C. with a recording spectrophotometer.

[2] = target: T2, fructose-1,6-bisphosphatase (FBP) (Rattus norvegicus, UniProt P19112); assay: FBP inhibition, spectrophotometric assay; type: biochemical; conditions: inhibition of purified rat liver FBP; 0.02 mM fructose-1,6-bisphosphate, pH 7.4, 30° C.
T2 construct: purified rat liver FBP; from tissue; host or cells: rat liver
T2 sequence (P19112 2-363 limits assumed): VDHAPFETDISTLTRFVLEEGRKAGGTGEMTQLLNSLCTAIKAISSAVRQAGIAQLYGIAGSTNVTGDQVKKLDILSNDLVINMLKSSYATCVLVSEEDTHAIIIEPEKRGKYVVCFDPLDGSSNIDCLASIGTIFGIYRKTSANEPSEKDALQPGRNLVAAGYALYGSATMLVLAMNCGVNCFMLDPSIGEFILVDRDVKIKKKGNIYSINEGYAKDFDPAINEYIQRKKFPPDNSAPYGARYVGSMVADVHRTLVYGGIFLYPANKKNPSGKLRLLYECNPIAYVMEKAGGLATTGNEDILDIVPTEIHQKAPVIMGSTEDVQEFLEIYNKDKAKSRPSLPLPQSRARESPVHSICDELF
Experimental: as §1
Effects on the activity of FBP were determined using a spectrophotometric assay. The assay mixture contained 100 mM tris(hydroxymethyl)aminomethane,hydrochloride ("TRIS-HCl", pH 7.4); 2.5 mM betamercaptoethanol; 2 mM magnesium chloride; 0.05 mM EDTA; 0.2 mM nicotinamide adenine dinucleotide phosphate ("NADP"); 10 U phosphoglucose isomerase; 5 U glucose-6-phosphatedehydrogenase; 0.02 U of purified rat liver FBP; and various concentrations of the test compound, all in a final volume of 1 ml. The mixture was preincubated for 3 minutes at 30° C. and then the reaction was initiated with 0.02 mM fructose-1,6-bisphosphate. The rate of increase in absorbance at 340 nm was measured at 30° C. with a recording spectrophotometer.

## O=P(O)(O)C[C@@H]1O[C@H](COP(=O)(O)O)[C@@H](O)[C@@H]1O [2,5-Anhydro-1-deoxy-1-phosphono-D-glucitol, 6-(dihydrogen phosphate)]
[1]
  pEC50: 4.70
[2]
  pIC50: 3.22

## O=P(O)(O)C[C@H]1O[C@H](COP(=O)(O)O)[C@@H](O)[C@@H]1O [2,5-Anhydro-1-deoxy-1-phosphono-D-mannitol, 6-(dihydrogen phosphate)]
[1]
  pEC50: 5.40
[2]
  pIC50: 4.24

## O=P(O)(O)C[C@]1(CO)O[C@H](COP(=O)(O)O)[C@@H](O)[C@@H]1O [2,5-Anhydro-1-deoxy-2-C-(hydroxymethyl)-1-phosphono-D-glucitol, 6-(dihydrogen phosphate)]
[1]
  pEC50: 4.92
[2]
  pIC50: 3.62

## O=P(O)(O)C[C@@]1(CO)O[C@H](COP(=O)(O)O)[C@@H](O)[C@@H]1O [2,5-Anhydro-1-deoxy-2-C-(hydroxymethyl)-1-phosphono-D-mannitol, 6-(dihydrogen phosphate)]
[1]
  pEC50: 5.22
[2]
  pIC50: 3.41

## O=P(O)(O)CC[C@H]1O[C@H](COP(=O)(O)O)[C@@H](O)[C@@H]1O [3,6-Anhydro-1,2-dideoxy-1-phosphono-D-manno-heptitol, 7-(dihydrogen phosphate)]
[1]
  pEC50: 5.22
[2]
  pIC50: 4.10

## O=P(O)(O)CCC[C@@H]1O[C@H](COP(=O)(O)O)[C@@H](O)[C@@H]1O [4,7-Anhydro-1,2,3-trideoxy-1-(dihydroxyphosphinyl)-D-gluco-octitol, 8-(dihydrogen phosphate)]
[1]
  pEC50: 4.92

## O=P(O)(O)CCC[C@H]1O[C@H](COP(=O)(O)O)[C@@H](O)[C@@H]1O [4,7-anhydro-1,2,3-trideoxy-1-(dihydroxyphosphinyl)-D-manno-octitol, 8-(dihydrogen phosphate)]
[1]
  pEC50: 4.57
[2]
  pIC50: 3.70
